Experimental data reported in publication PMC5218480 (PLoS ONE, 2017).

System: MV-4-11 cells
Assay: Gene expression microarray analysis (Affymetrix PrimeView) and GSEA
Format: cell-based, human
Design: RFU PODN (11730768_x_at) / Fold change /veh PODN (11730768_x_at) / RFU LINC00158 (11744669_a_at) / Fold change /veh LINC00158 (11744669_a_at) / RFU DUSP10 (11751237_a_at) / Fold change /veh DUSP10 (11751237_a_at) / RFU ID3 (11757404_x_at) / Fold change /veh ID3 (11757404_x_at) / RFU PLEKHG5 (11737974_s_at) / Fold change /veh PLEKHG5 (11737974_s_at) / RFU LRRC4B (11730491_at) / Fold change /veh LRRC4B (11730491_at) / RFU GIMAP4 (11747438_a_at) / Fold change /veh GIMAP4 (11747438_a_at) / RFU KRT8 (11758183_x_at) / Fold change /veh KRT8 (11758183_x_at) / RFU CNN1 (11734310_a_at) / Fold change /veh CNN1 (11734310_a_at) / RFU VPS37D (11726825_at) / Fold change /veh VPS37D (11726825_at) / RFU C10orf10 (11716522_x_at) / Fold change /veh C10orf10 (11716522_x_at) / RFU KIR2DL2 /// KIR2DL4 /// KIR2DL5A /// KIR2DL5B /// KIR2DS1 /// KIR2DS2 /// KIR2DS3 /// KIR2DS4 /// KIR3DL3 /// KIR3DL3 /// KIR3DS1 (11738374_at) / Fold change /veh KIR2DL2 /// KIR2DL4 /// KIR2DL5A /// KIR2DL5B /// KIR2DS1 /// KIR2DS2 /// KIR2DS3 /// KIR2DS4 /// KIR3DL3 /// KIR3DL3 /// KIR3DS1 (11738374_at) / RFU C1QL1 (11718748_at) / Fold change /veh C1QL1 (11718748_at) / RFU TMPRSS4 (11747572_a_at) / Fold change /veh TMPRSS4 (11747572_a_at) / RFU HAMP (11756126_x_at) / Fold change /veh HAMP (11756126_x_at) / RFU RNFT2 (11725882_a_at) / Fold change /veh RNFT2 (11725882_a_at) / RFU NR4A2 (11747474_a_at) / Fold change /veh NR4A2 (11747474_a_at) / RFU ABCC12 (11746883_a_at) / Fold change /veh ABCC12 (11746883_a_at) / RFU TMEM136 (11760407_x_at) / Fold change /veh TMEM136 (11760407_x_at) / RFU CLDN22 /// WWC2 (11732394_at) / Fold change /veh CLDN22 /// WWC2 (11732394_at) / RFU HLA-DPB1 (11760878_x_at) / Fold change /veh HLA-DPB1 (11760878_x_at) / RFU SPINT1 (11716480_a_at) / Fold change /veh SPINT1 (11716480_a_at) / RFU GAP43 (11754022_s_at) / Fold change /veh GAP43 (11754022_s_at) / RFU A4GNT (11735810_at) / Fold change /veh A4GNT (11735810_at) / RFU PRB3 (11715151_x_at) / Fold change /veh PRB3 (11715151_x_at) / RFU TUBB4B (11761932_at) / Fold change /veh TUBB4B (11761932_at) / RFU CAPN14 (11732068_a_at) / Fold change /veh CAPN14 (11732068_a_at) / RFU TMCC2 (11721928_a_at) / Fold change /veh TMCC2 (11721928_a_at) / RFU IRGQ (11745062_a_at) / Fold change /veh IRGQ (11745062_a_at) / RFU FAM174B (11720279_a_at) / Fold change /veh FAM174B (11720279_a_at) / RFU TMPRSS4 (11748680_a_at) / Fold change /veh TMPRSS4 (11748680_a_at) / RFU FAM212B (11763350_a_at) / Fold change /veh FAM212B (11763350_a_at) / RFU PLEKHG5 (11743358_a_at) / Fold change /veh PLEKHG5 (11743358_a_at) / RFU ZSCAN30 (11745921_a_at) / Fold change /veh ZSCAN30 (11745921_a_at) / RFU CMKLR1 (11741424_a_at) / Fold change /veh CMKLR1 (11741424_a_at) / RFU LOC101060620 /// MAPK8IP1 (11723275_at) / Fold change /veh LOC101060620 /// MAPK8IP1 (11723275_at) / RFU SPTSSB (11747773_x_at) / Fold change /veh SPTSSB (11747773_x_at) / RFU PRSS12 (11739890_at) / Fold change /veh PRSS12 (11739890_at) / RFU BIN1 (11741810_x_at) / Fold change /veh BIN1 (11741810_x_at) / RFU WNT11 (11732464_a_at) / Fold change /veh WNT11 (11732464_a_at) / RFU C10orf10 (11716521_a_at) / Fold change /veh C10orf10 (11716521_a_at) / RFU C5orf56 (11738089_at) / Fold change /veh C5orf56 (11738089_at) / RFU CYB561 (11721691_x_at) / Fold change /veh CYB561 (11721691_x_at) / RFU ANKRD19P (11752326_a_at) / Fold change /veh ANKRD19P (11752326_a_at) / RFU OR2T12 /// OR2T33 /// OR2T8 (11738714_s_at) / Fold change /veh OR2T12 /// OR2T33 /// OR2T8 (11738714_s_at) / RFU VCAN (11748164_a_at) / Fold change /veh VCAN (11748164_a_at) / RFU JSRP1 (11732532_at) / Fold change /veh JSRP1 (11732532_at) / RFU KRTAP10-11 (11738290_x_at) / Fold change /veh KRTAP10-11 (11738290_x_at) / RFU MYO3A (11730013_a_at) / Fold change /veh MYO3A (11730013_a_at) / RFU EBF3 (11725865_a_at) / Fold change /veh EBF3 (11725865_a_at) / RFU CAMK2N1 (11719241_x_at) / Fold change /veh CAMK2N1 (11719241_x_at) / RFU C5orf56 (11738088_a_at) / Fold change /veh C5orf56 (11738088_a_at) / RFU OLFML3 (11715873_a_at) / Fold change /veh OLFML3 (11715873_a_at) / RFU LOC100653217 /// NTM (11731650_a_at) / Fold change /veh LOC100653217 /// NTM (11731650_a_at) / RFU MAPK11 (11762145_a_at) / Fold change /veh MAPK11 (11762145_a_at) / RFU FIZ1 (11724087_x_at) / Fold change /veh FIZ1 (11724087_x_at) / RFU OASL (11726364_x_at) / Fold change /veh OASL (11726364_x_at) / RFU SOX15 (11748057_x_at) / Fold change /veh SOX15 (11748057_x_at) / RFU CD79A (11719716_a_at) / Fold change /veh CD79A (11719716_a_at) / RFU HIST1H1D (11736915_at) / Fold change /veh HIST1H1D (11736915_at) / RFU CASKIN2 (11723855_a_at) / Fold change /veh CASKIN2 (11723855_a_at) / RFU LOC730098 (11760151_x_at) / Fold change /veh LOC730098 (11760151_x_at) / RFU OR4N2 (11742367_at) / Fold change /veh OR4N2 (11742367_at) / RFU PRRT2 (11749266_a_at) / Fold change /veh PRRT2 (11749266_a_at) / RFU SNX32 (11753110_a_at) / Fold change /veh SNX32 (11753110_a_at) / RFU CDHR5 (11726645_a_at) / Fold change /veh CDHR5 (11726645_a_at) / RFU RCAN1 (11760418_a_at) / Fold change /veh RCAN1 (11760418_a_at) / RFU FAM167A (11723789_a_at) / Fold change /veh FAM167A (11723789_a_at) / RFU FAM26E (11764081_at) / Fold change /veh FAM26E (11764081_at) / RFU ISYNA1 (11749810_s_at) / Fold change /veh ISYNA1 (11749810_s_at) / RFU ACY1 (11761880_at) / Fold change /veh ACY1 (11761880_at) / RFU 11764098_at / Fold change /veh 11764098_at / RFU SAMD14 (11745864_x_at) / Fold change /veh SAMD14 (11745864_x_at) / RFU NPB (11741838_a_at) / Fold change /veh NPB (11741838_a_at) / RFU TMPRSS6 (11731388_a_at) / Fold change /veh TMPRSS6 (11731388_a_at) / RFU KRTAP10-2 (11738614_at) / Fold change /veh KRTAP10-2 (11738614_at) / RFU ARHGAP8 /// PRR5-ARHGAP8 (11727945_x_at) / Fold change /veh ARHGAP8 /// PRR5-ARHGAP8 (11727945_x_at) / RFU KRTAP5-7 /// NADSYN1 (11734609_at) / Fold change /veh KRTAP5-7 /// NADSYN1 (11734609_at) / RFU RASL12 (11751679_a_at) / Fold change /veh RASL12 (11751679_a_at) / RFU CDKN2B (11736163_a_at) / Fold change /veh CDKN2B (11736163_a_at) / RFU PRF1 (11729649_at) / Fold change /veh PRF1 (11729649_at) / RFU, ZNF638 /// ZNF638-IT1 / Fold change vs veh, ZNF638 /// ZNF638-IT1 / RFU, PANK3 / Fold change vs veh, PANK3 / RFU, SH3YL1 / Fold change vs veh, SH3YL1 / RFU, ZEB2 / Fold change vs veh, ZEB2 / RFU, NRIP1 / Fold change vs veh, NRIP1 / RFU, PTTG1IP / Fold change vs veh, PTTG1IP / RFU, CAPN2 / Fold change vs veh, CAPN2 / RFU, MED14 / Fold change vs veh, MED14 / RFU, SNORA58 / Fold change vs veh, SNORA58 / RFU, C1orf63 / Fold change vs veh, C1orf63 / RFU, LRRFIP1 / Fold change vs veh, LRRFIP1 / RFU, NDUFAF7 / Fold change vs veh, NDUFAF7 / RFU, SLC12A2 / Fold change vs veh, SLC12A2 / RFU, IBTK / Fold change vs veh, IBTK / RFU, ESF1 / Fold change vs veh, ESF1 / Fold change vs veh, TMEM50B / RFU, TAOK1 / Fold change vs veh, TAOK1 / RFU, ACBD3 / Fold change vs veh, ACBD3 / RFU, TMA16 / Fold change vs veh, TMA16 / RFU, RWDD3 / Fold change vs veh, RWDD3 / RFU, BCAT1 / Fold change vs veh, BCAT1 / RFU, EDEM3 / Fold change vs veh, EDEM3 / RFU, TMEM33 / Fold change vs veh, TMEM33 / RFU, WDR75 / Fold change vs veh, WDR75 / RFU, AHCTF1 / Fold change vs veh, AHCTF1 / RFU, TFRC / Fold change vs veh, TFRC / RFU, ZDHHC17 / Fold change vs veh, ZDHHC17 / RFU, NOM1 / Fold change vs veh, NOM1 / RFU, ARL8B / Fold change vs veh, ARL8B / RFU, ZBTB11 / Fold change vs veh, ZBTB11 / RFU, TAMM41 / Fold change vs veh, TAMM41 / RFU, KIAA1704 /// LOC100996395 / Fold change vs veh, KIAA1704 /// LOC100996395 / RFU, ING1 / Fold change vs veh, ING1 / RFU, TRMT61B / Fold change vs veh, TRMT61B / RFU, FUBP3 / Fold change vs veh, FUBP3 / RFU, TP53 / Fold change vs veh, TP53 / RFU, TNKS2 / Fold change vs veh, TNKS2 / RFU, ZFP14 / Fold change vs veh, ZFP14 / RFU, ACTR2 / Fold change vs veh, ACTR2 / RFU, PPP3R1 / Fold change vs veh, PPP3R1 / RFU, PIK3R1 / Fold change vs veh, PIK3R1 / RFU, HNRNPA1 / Fold change vs veh, HNRNPA1 / RFU, RNF170 / Fold change vs veh, RNF170 / RFU, ZNF28 / Fold change vs veh, ZNF28 / RFU, RNGTT / Fold change vs veh, RNGTT / RFU, OGT / Fold change vs veh, OGT / RFU, BRD1 / Fold change vs veh, BRD1 / RFU, MARS / Fold change vs veh, MARS / RFU, ZNF655 / Fold change vs veh, ZNF655 / RFU, FAHD1 / Fold change vs veh, FAHD1 / RFU, BDP1 / Fold change vs veh, BDP1 / RFU, LRRCC1 / Fold change vs veh, LRRCC1 / RFU, ARID1A / Fold change vs veh, ARID1A / RFU, ZNF146 / Fold change vs veh, ZNF146 / RFU, ZNF330 / Fold change vs veh, ZNF330 / RFU, GPN3 / Fold change vs veh, GPN3 / RFU, C9orf123 / Fold change vs veh, C9orf123 / RFU, N4BP2L2 / Fold change vs veh, N4BP2L2 / RFU, ARFIP1 / Fold change vs veh, ARFIP1 / RFU, FAM179B / Fold change vs veh, FAM179B / RFU, BCL10 / Fold change vs veh, BCL10 / RFU, UHRF1BP1L / Fold change vs veh, UHRF1BP1L / RFU, BET1 / Fold change vs veh, BET1 / RFU, CNOT2 / Fold change vs veh, CNOT2 / RFU, ZNF268 / Fold change vs veh, ZNF268 / Fold change vs veh, ZNF507 / RFU, DGCR2 / Fold change vs veh, DGCR2 / RFU, WDSUB1 / Fold change vs veh, WDSUB1 / Fold change vs veh, HSP90B1 /// MIR3652 / RFU, ADSS / Fold change vs veh, ADSS / RFU, GK / Fold change vs veh, GK / RFU, ZNF148 / Fold change vs veh, ZNF148 / RFU, TAF9 / Fold change vs veh, TAF9 / RFU, SLC1A5 / Fold change vs veh, SLC1A5 / RFU, SLMO2 / Fold change vs veh, SLMO2 / RFU, ABCC4 / Fold change vs veh, ABCC4 / RFU, LOC101060439 /// RAP1B / Fold change vs veh, LOC101060439 /// RAP1B / RFU, RFX7 / Fold change vs veh, RFX7 / RFU, GTPBP10 / Fold change vs veh, GTPBP10 / RFU, CNEP1R1 / Fold change vs veh, CNEP1R1 / RFU, BIVM-ERCC5 /// ERCC5 / Fold change vs veh, BIVM-ERCC5 /// ERCC5 / RFU, ILF3 / Fold change vs veh, ILF3 / RFU 11762660_at / Fold change /veh 11762660_at / RFU VCAN (11757783_s_at) / Fold change /veh VCAN (11757783_s_at) / RFU DDX43 (11728927_at) / Fold change /veh DDX43 (11728927_at) / RFU KRT8 (11758188_x_at) / Fold change /veh KRT8 (11758188_x_at) / RFU NKD1 (11759106_at) / Fold change /veh NKD1 (11759106_at) / RFU SRD5A1 (11742802_a_at) / Fold change /veh SRD5A1 (11742802_a_at) / RFU TPSAB1 /// TPSB2 (11721975_s_at) / Fold change /veh TPSAB1 /// TPSB2 (11721975_s_at) / RFU GSTM3 (11746129_a_at) / Fold change /veh GSTM3 (11746129_a_at) / RFU IL23R (11737362_x_at) / Fold change /veh IL23R (11737362_x_at) / RFU TMEM51 (11727254_a_at) / Fold change /veh TMEM51 (11727254_a_at) / RFU PIWIL2 (11732686_x_at) / Fold change /veh PIWIL2 (11732686_x_at) / RFU ORM1 (11744905_x_at) / Fold change /veh ORM1 (11744905_x_at) / RFU CCDC152 (11743942_at) / Fold change /veh CCDC152 (11743942_at) / RFU ECM1 (11717891_a_at) / Fold change /veh ECM1 (11717891_a_at) / RFU IL23R (11748794_a_at) / Fold change /veh IL23R (11748794_a_at) / RFU TNFAIP8L3 (11732012_x_at) / Fold change /veh TNFAIP8L3 (11732012_x_at) / RFU MBOAT4 (11741988_at) / Fold change /veh MBOAT4 (11741988_at) / RFU 11764193_at / Fold change /veh 11764193_at / RFU TMEM53 (11763286_at) / Fold change /veh TMEM53 (11763286_at) / RFU MAGEB2 (11727129_at) / Fold change /veh MAGEB2 (11727129_at) / RFU TMEM200A (11744735_a_at) / Fold change /veh TMEM200A (11744735_a_at) / RFU CCDC152 (11751479_a_at) / Fold change /veh CCDC152 (11751479_a_at) / RFU FAM211A (11726209_a_at) / Fold change /veh FAM211A (11726209_a_at) / RFU RGS16 (11746705_a_at) / Fold change /veh RGS16 (11746705_a_at) / RFU VCAN (11755009_s_at) / Fold change /veh VCAN (11755009_s_at) / RFU RHOB (11743442_s_at) / Fold change /veh RHOB (11743442_s_at) / RFU RGS16 (11720943_a_at) / Fold change /veh RGS16 (11720943_a_at) / RFU RGS16 (11720944_at) / Fold change /veh RGS16 (11720944_at) / RFU, VPS4B / Fold change vs veh, VPS4B / RFU, CREB1 / Fold change vs veh, CREB1 / RFU, DNAJC13 / Fold change vs veh, DNAJC13 / RFU, GNAQ / Fold change vs veh, GNAQ / RFU, CDK5R1 / Fold change vs veh, CDK5R1 / RFU, ZRANB3 / Fold change vs veh, ZRANB3 / RFU, CUL4A / Fold change vs veh, CUL4A / RFU, CCNY / Fold change vs veh, CCNY / RFU, UFL1 / Fold change vs veh, UFL1 / RFU, COG3 / Fold change vs veh, COG3 / RFU, DIAPH2 / Fold change vs veh, DIAPH2 / RFU, SKA2 / Fold change vs veh, SKA2 / RFU, AFF3 / Fold change vs veh, AFF3 / RFU, LMF1 / Fold change vs veh, LMF1 / RFU, IPO11 / Fold change vs veh, IPO11 / RFU, DFFB / Fold change vs veh, DFFB / RFU, FOXP1 / Fold change vs veh, FOXP1 / RFU, CARD8 / Fold change vs veh, CARD8 / RFU, STRN3 / Fold change vs veh, STRN3 / RFU, ADK / Fold change vs veh, ADK / RFU, RASSF2 / Fold change vs veh, RASSF2 / RFU, WIPF1 / Fold change vs veh, WIPF1 / RFU, LARP1B / Fold change vs veh, LARP1B / RFU, RASA1 / Fold change vs veh, RASA1 / RFU, RB1 / Fold change vs veh, RB1 / RFU, PPFIA1 / Fold change vs veh, PPFIA1 / RFU, MAT2A / Fold change vs veh, MAT2A / RFU, CCT5 / Fold change vs veh, CCT5 / RFU, WDR92 / Fold change vs veh, WDR92 / RFU, CUX1 / Fold change vs veh, CUX1 / RFU, TTC7A / Fold change vs veh, TTC7A / RFU, TMEM135 / Fold change vs veh, TMEM135 / RFU, DEPTOR / Fold change vs veh, DEPTOR / RFU, CPM / Fold change vs veh, CPM / RFU, DNAJB6 / Fold change vs veh, DNAJB6 / RFU, CACNA2D3 / Fold change vs veh, CACNA2D3 / RFU, DTX4 / Fold change vs veh, DTX4 / RFU, TFCP2 / Fold change vs veh, TFCP2 / RFU, GMCL1 /// GMCL1P1 / Fold change vs veh, GMCL1 /// GMCL1P1 / RFU, AEBP2 / Fold change vs veh, AEBP2 / RFU, SNHG1 /// SNORD22 /// SNORD25 /// SNORD26 /// SNORD27 /// SNORD28 /// SNORD29 /// SNORD31 / Fold change vs veh, SNHG1 /// SNORD22 /// SNORD25 /// SNORD26 /// SNORD27 /// SNORD28 /// SNORD29 /// SNORD31 / Fold change (Aza/veh), C12orf56 (ProbeSet 11735607_a_at) / Fold change (ACY-1035/veh), C12orf56 (ProbeSet 11735607_a_at) / Fold change (Aza/veh), FGFR1OP (ProbeSet 11751329_s_at) / Fold change (ACY-1035/veh), FGFR1OP (ProbeSet 11751329_s_at) / Fold change (Aza/veh), VPS36 (ProbeSet 11739960_a_at) / Fold change (ACY-1035/veh), VPS36 (ProbeSet 11739960_a_at) / RFU SYPL1 (11715823_x_at) / Fold change /veh SYPL1 (11715823_x_at) / RFU IGFBP7 (11715501_s_at) / Fold change /veh IGFBP7 (11715501_s_at) / RFU REEP3 (11722064_at) / Fold change /veh REEP3 (11722064_at) / RFU IGLL1 (11728026_x_at) / Fold change /veh IGLL1 (11728026_x_at): dose or concentration left out as unconfirmed
Settings: ProbeSet 11743286_at; LIST D

For Nc1ccc(-c2cccs2)cc1NC(=O)c1ccc2c(c1)cc(C1CC1)n2CCN1CCOCC1 [ACY-1035], the “RFU, DTX4” value was 268.88 RFU.
